Measured values as given in US20240228489A1, “POSITIVE ALLOSTERIC MODULATORS OF THE MUSCARINIC ACETYLCHOLINE RECEPTOR M1” (Vanderbilt University, priority 2021, published 2024).

What was measured:
human mAChR M1 [1] = target: T1, human mAChR M1 (Homo sapiens, UniProt P11229); experiment: mAChR M1 cell-based functional assay (calcium mobilization), PAM mode: increase in the EC20 acetylcholine response
T1 sequence (P11229 1-460): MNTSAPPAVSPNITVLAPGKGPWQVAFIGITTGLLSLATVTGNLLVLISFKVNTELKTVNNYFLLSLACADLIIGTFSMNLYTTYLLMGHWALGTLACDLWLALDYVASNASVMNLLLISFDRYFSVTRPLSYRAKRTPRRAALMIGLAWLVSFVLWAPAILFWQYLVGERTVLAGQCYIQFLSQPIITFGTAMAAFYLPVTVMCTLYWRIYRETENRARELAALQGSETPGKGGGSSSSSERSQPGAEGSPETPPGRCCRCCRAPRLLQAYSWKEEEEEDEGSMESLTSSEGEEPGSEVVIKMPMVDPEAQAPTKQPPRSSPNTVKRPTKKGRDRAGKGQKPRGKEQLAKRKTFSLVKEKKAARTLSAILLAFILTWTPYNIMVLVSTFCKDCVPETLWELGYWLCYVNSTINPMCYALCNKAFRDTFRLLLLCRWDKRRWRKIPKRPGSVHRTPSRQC
Source text: (§1) Chinese hamster ovary (CHO-K1) cells stably expressing rat (r)M1 were purchased from the American Type Culture Collection and cultured according to their indicated protocol. CHO cells stably expressing human (h)M2, hM3, and hM5 were described previously (Levey, et al., 1991); hM1 and hM4 cDNAs were purchased from Missouri S&T cDNA Resource; rM4 cDNA was provided by T. I. Bonner (National Institutes of Health, Bethesda, MD). rM2 and rM3 were cloned from a rat brain cDNA library and sequence verified. hM1, rM2, rM3, hM4, and rM4 cDNAs were used to stably transfect CHO-K1 cells purchased from the American Type Culture Collection using Lipofectamine2000. To make stable rM2, hM2, rM3, hM4, and rM4 cell lines for use in calcium mobilization assays, these cells also were stably transfected with a chimeric G-protein (Gqi5) (provided by B. R. Conklin, University of California, San Francisco) using Lipofectamine 2000. rM1, hM1, rM3, hM3, rM5, and hM5 cells were grown in Ham's F-12 medium containing 10% heat-inactivated fetal bovine serum (FBS), 20 mM HEPES, and 50 μg/mL G418 sulfate. rM2-Gqi5, hM2-Gqi5, and hM4-Gqi5 cells were grown in the same medium also containing 500 μg/mL Hygromycin B. Stable rM4-Gqi5 cells were grown in DMEM containing 10% heat-inactivated FBS, 20 mM HEPES, 400 μg/mL G418 sulfate, and 500 μg/mL Hygromycin B.
(§2) For high throughput measurement of agonist-evoked increases in intracellular calcium, CHO-K1 cells stably expressing muscarinic receptors were plated in growth medium lacking G418 and hygromycin at 15,000 cells/20 μL/well in Greiner 384-well black-walled, tissue culture (TC)-treated, clear-bottom plates (VWR). Cells were incubated overnight at 37° C. and 5% C02. The next day, cells were washed using an ELX 405 (BioTek) with four washes (80 μL) of assay buffer then aspirated to 20 μL. Next, 20 μL of 16 μM Fluo-4/acetoxymethyl ester (Invitrogen, Carlsbad, CA) prepared as a 2.3 mM stock in DMSO and mixed in a 1:1 ratio with 10% (w/v) Pluronic F-127 and diluted in assay buffer was added to the wells and the cell plates were incubated for 50 min at 37° C. and 5% C02. Dye was removed by washing with the ELX 405 (four 80 μL washes of assay buffer) then aspirated to 20 μL. Compound master plates were formatted in an 11 point CRC format (1:3 dilutions) in 100% DMSO with a starting concentration of 10 mM using the BRAVO liquid handler (Agilent). Test compound CRCs were then transferred to daughter plates (240 nL) using the Echo acoustic plate reformatter (Labcyte, Sunnyvale, CA) and then diluted into assay buffer (40 μL) to a 2× stock using a Thermo Fisher Combi (Thermo Fisher Scientific, Waltham, MA).
Calcium flux was measured using the Functional Drug Screening System (FDSS) 6000 (Hamamatsu Corporation, Tokyo, Japan) as an increase in the fluorescent static ratio. Compounds were applied to cells (20 μL, 2×) using the automated system of the FDSS 6000 at 4 s into the 300 s protocol and the data were collected at 1 Hz. At 144 s into the 300 s protocol, 10 μL of an EC20 concentration of the muscarinic receptor agonist acetylcholine was added (5×), followed by the addition of 12 μL of an EC80 concentration of acetylcholine at the 230 s time point (5×). Agonist activity was analyzed as a concentration-dependent increase in calcium mobilization upon compound addition. Emax values for agonist activity are expressed relative to the maximum for acetylcholine. Positive allosteric modulator activity was analyzed as a concentration-dependent increase in the EC20 acetylcholine response. Antagonist activity was analyzed as a concentration-dependent decrease in the EC80 acetylcholine response. Concentration-response curves were generated using a four-parameter logistical equation in XLfit curve fitting software (IDBS, Bridgewater, NJ) for Excel (Microsoft, Redmond, WA) or Prism (GraphPad Software, Inc., San Diego, CA). […]

human mAChR M1 [2] = target: T1, human mAChR M1; experiment: mAChR M1 cell-based functional assay (calcium mobilization), agonist mode: compound alone, Emax relative to acetylcholine maximum; conditions: for EC50 / Agonist Activity Human M1 EC50: human mAChR M1; for Emax: relative to the maximum for acetylcholine
Source text: as §1, §2
Calcium flux was measured using the Functional Drug Screening System (FDSS) 6000 (Hamamatsu Corporation, Tokyo, Japan) as an increase in the fluorescent static ratio. Compounds were applied to cells (20 μL, 2×) using the automated system of the FDSS 6000 at 4 s into the 300 s protocol and the data were collected at 1 Hz. At 144 s into the 300 s protocol, 10 μL of an EC20 concentration of the muscarinic receptor agonist acetylcholine was added (5×), followed by the addition of 12 μL of an EC80 concentration of acetylcholine at the 230 s time point (5×). Agonist activity was analyzed as a concentration-dependent increase in calcium mobilization upon compound addition. Emax values for agonist activity are expressed relative to the maximum for acetylcholine. Positive allosteric modulator activity was analyzed as a concentration-dependent increase in the EC20 acetylcholine response. Antagonist activity was analyzed as a concentration-dependent decrease in the EC80 acetylcholine response. Concentration-response curves were generated using a four-parameter logistical equation in XLfit curve fitting software (IDBS, Bridgewater, NJ) for Excel (Microsoft, Redmond, WA) or Prism (GraphPad Software, Inc., San Diego, CA).

EC50 (human mAChR M1 [1]) | Emax (human mAChR M1 [1]) | EC50 (human mAChR M1 [2]) | Emax (human mAChR M1 [2]) | Agonist Activity Human M1 EC50 (human mAChR M1 [2]) | SMILES
2.48 µM | 82% | 8.25 µM | 34% |  | [2H]C1([2H])c2ncccc2C(=O)N1Cc1c(C)cc(-c2cccc3nn(C)cc23)cc1F (single isomer, unassigned) [Compound 155, 6-(2-Fluoro-6-methyl-4-(2-methyl-2H-indazol-4-yl)benzyl)-6,7-dihydro-5H-pyrrolo[3,4-b]pyridin-5-one-7,7-d2]
0.194 µM | 85% | 8.16 µM | 33% |  | [2H]C1([2H])c2ncccc2C(=O)N1Cc1c(C)cc(-c2cccc3nn(C([2H])([2H])[2H])cc23)cc1F (single isomer, unassigned) [Compound 156, 6-(2-Fluoro-6-methyl-4-(2-(methyl-d3)-2H-indazol-4-yl)benzyl)-6,7-dihydro-5H-pyrrolo[3,4-b]pyridin-5-one-7,7-d2]
0.538 µM | 84% |  | 8% | Inactive | [2H]C1([2H])c2ncccc2C(=O)N1Cc1c(F)cc(-c2cccc3nn(C)cc23)cc1F [Compound 1, 6-(2,6-difluoro-4-(2-methyl-2H-indazol-4-yl)benzyl)-6,7-dihydro-5H-pyrrolo[3,4-b]pyridin-5-one-7,7-d2]
0.98 µM | 57% | 7.7 µM | 34% |  | [2H]C1([2H])c2ncccc2C(=O)N1Cc1c(F)cc(-c2ccnc3nn(C)cc23)cc1F [Compound 2, 6-(2,6-difluoro-4-(2-methyl-2H-pyrazolo[3,4-b]pyridin-4-yl)benzyl)-6,7-dihydro-5H-pyrrolo[3,4-b]pyridin-5-one-7,7-d2]
0.9 µM | 56% | 6.92 µM | 31% |  | [2H]C1([2H])c2ncccc2C(=O)N1Cc1c(F)cc(-c2cnc3nn(C)cc3c2)cc1F [Compound 3, 6-(2,6-difluoro-4-(2-methyl-2H-pyrazolo[3,4-b]pyridin-5-yl)benzyl)-6,7-dihydro-5H-pyrrolo[3,4-b]pyridin-5-one-7,7-d2]
1.06 µM | 48% |  | 2% | Inactive | [2H]C1([2H])c2ncccc2C(=O)N1Cc1c(F)cc(-c2cc3cn(C)nc3cc2F)cc1F [Compound 4, 6-(2,6-difluoro-4-(6-fluoro-2-methyl-2H-indazol-5-yl)benzyl)-6,7-dihydro-5H-pyrrolo[3,4-b]pyridin-5-one-7,7-d2]
0.977 µM | 40% |  | 2% | Inactive | [2H]C1([2H])c2ncccc2C(=O)N1Cc1c(F)cc(-c2ccn3ccnc3c2)cc1F [Compound 5, 6-(2,6-difluoro-4-(imidazo[1,2-a]pyridin-7-yl)benzyl)-6,7-dihydro-5H-pyrrolo[3,4-b]pyridin-5-one-7,7-d2]
4.09 µM | 48% |  | 7% | Inactive | [2H]C1([2H])c2ncccc2C(=O)N1Cc1c(F)cc(-c2cc3cn(C)nc3cc2C)cc1F [Compound 6, 6-(4-(2,6-dimethyl-2H-indazol-5-yl)-2,6-difluorobenzyl)-6,7-dihydro-5H-pyrrolo[3,4-b]pyridin-5-one-7,7-d2]
0.952 µM | 53% |  | 4% | Inactive | [2H]C1([2H])c2ncccc2C(=O)N1Cc1c(F)cc(-c2cc(F)c3nn(C)cc3c2)cc1F [Compound 7, 6-(2,6-difluoro-4-(7-fluoro-2-methyl-2H-indazol-5-yl)benzyl)-6,7-dihydro-5H-pyrrolo[3,4-b]pyridin-5-one-7,7-d2]
0.639 µM | 62% |  | 4% | Inactive | [2H]C1([2H])c2ncccc2C(=O)N1Cc1c(F)cc(-c2ccc3nn(C)cc3c2)cc1F [Compound 8, 6-(2,6-difluoro-4-(2-methyl-2H-indazol-5-yl)benzyl)-6,7-dihydro-5H-pyrrolo[3,4-b]pyridin-5-one-7,7-d^2]
0.686 µM | 71% |  | 6% | Inactive | [2H]C1([2H])c2ncccc2C(=O)N1Cc1ccc(-c2ccc3nn(C)cc3c2)cc1F [Compound 9, 6-(2-fluoro-4-(2-methyl-2H-indazol-5-yl)benzyl)-6,7-dihydro-5H-pyrrolo[3,4-b]pyridin-5-one-7,7-d2]
1.46 µM | 62% |  | 4% | Inactive | [2H]C1([2H])c2ncccc2C(=O)N1Cc1ccc(-c2ccc3c(cnn3C)c2)cc1F [Compound 10, 6-(2-fluoro-4-(1-methyl-1H-indazol-5-yl)benzyl)-6,7-dihydro-5H-pyrrolo[3,4-b]pyridin-5-one-7,7-d2]
1.3 µM | 77% |  | 6% | Inactive | [2H]C1([2H])c2ncccc2C(=O)N1Cc1ccc(-c2cccc3nn(C)cc23)cc1 [Compound 11, 6-(4-(2-methyl-2H-indazol-4-yl)benzyl)-6,7-dihydro-5H-pyrrolo[3,4-b]pyridin-5-one-7,7-d2]
1.23 µM | 62% |  | 2% | Inactive | [2H]C1([2H])c2ncccc2C(=O)N1Cc1ccc(-c2ccc3nn(C)cc3c2)cc1 [Compound 12, 6-(4-(2-methyl-2H-indazol-5-yl)benzyl)-6,7-dihydro-5H-pyrrolo[3,4-b]pyridin-5-one-7,7-d2]
5.19 µM | 75% |  | 3% | Inactive | [2H]C1([2H])c2ncccc2C(=O)N1Cc1ccc(-c2cnc3nn(C)cc3c2)cc1 [Compound 13, 6-(4-(2-methyl-2H-pyrazolo[3,4-b]pyridin-5-yl)benzyl)-6,7-dihydro-5H-pyrrolo[3,4-b]pyridin-5-one-7,7-d2]
